In US20020142942A1, “Method for treating premenstrual or late luteal phase syndrome” (Merck & Co. Inc., priority 1997, published 2002):

Experiments:
[1] = test system: distress vocalisations in guinea-pig pups; test: Separation-induced vocalisation assay; type: in vivo, guinea-pigs; conditions: p.o.
Text: Separation-Induced Vocalisation Assay Male and female guinea-pigs pups are housed in family groups with their mothers and littermates throughout the study. Experiments are commenced […] when the pups are 2 weeks old. Before entering an experiment, the pups are screened to ensure that a vigorous vocalisation response is reproducibly elicited following maternal separation. The pups are placed individually in an observation cage (55 cm×39 cm×19 cm) in a room physically isolated from the home cage for 15 minutes and the duration of vocalisation during this baseline period is recorded. Only animals which vocalise for longer than 5 minutes are employed for drug challenge studies (approximately 50% of available pups may fail to reach this criterion). On test days each pup receives an oral dose or a s.c. or i.p. injection of test compound or vehicle and is then immediately returned to the home cage with its mother and siblings for 30 minutes to 60 minutes (or for up to 4 hours following an oral dose, dependant upon the oral pharmacokinetics of the test compound) before social isolation for 15 minutes as described above. The duration of vocalisation on drug treatment days is expressed as a percentage of the pre-treatment baseline value for each animal. The same subjects are retested once weekly for up to 6 weeks. Between 6 and 8 animals receive each test compound at each dose tested. […]

[2] = test system: women with premenstrual syndrome; test: Double-blind, placebo-controlled study of mood and appetite disturbances associated with premenstrual syndrome; type: in vivo; conditions: 30 mg/day, compared with placebo, Hamilton Depression Scale and PMS/LLPD Symptom Rating Scale
Protocol: Double-Blind, Placebo-Controlled Study to Determine the Effect of a Substance P Antagonist on Mood and Appetite Disturbances Associated with Premenstrual Syndrome in Women.
Approximately twenty women receive either the substance P receptor antagonist 2-(R)-(1-(R)-(3,5-bis(trifluoromethyl)phenyl)ethoxy)-3-(S)-(4-fluorophenyl)-4-(3-(5-oxo-1H,4H-1,2,4-triazolo)methyl-morpholine (30 mg/day) or a placebo starting approximately two weeks prior to their expected menstrual period. Each subject participates in 6 randomized test periods; in 3 of the test periods, each is given the substance P antagonist and in the other 3 test periods, is given a placebo. Mood is assessed 1-3 days before the onset of menses, using the Hamilton Depression Scale and the PMS/LLPD Symptom Rating Scale, for mood and appetite symptoms. Hamilton, N., Journal of Neurosurgery and Psychiatry, 23:56-62 (1960); Steiner, M. et al., Acta Psychiatrica Scandinavia, 62:177-190 (1980). Food intake is measured through the use of self-reports (when subjects were out-patients), and directly (while subjects were inpatients), during one drug and one placebo period; subjects also are weighed. The results between the test periods are compared and the results for each subject are evaluated.

[3] = test system: foot tapping in gerbils induced by central injection of an NK1 agonist; test: Gerbil foot-tapping assay; type: in vivo, Mongolian gerbils; conditions: i.v.
Text: Gerbil Foot-Tapping Assay CNS penetrant NK-1 receptor antagonists for use in the present invention can be identified by their ability to inhibit foot tapping in gerbils induced by anxiogenic agents (such as pentagastrin) or central infusion of NK-1 receptor agonists such as GR73632, or caused by aversive stimulation such as foot shock or single housing, based on the method of Rupniak & Williams, Eur. J. Pharmacol., 1994, 265, 179. Male or female Mongolian gerbils (35-70 g) are anaesthetised by inhalation of an isoflurane/oxygen mixture to permit exposure of the jugular vein in order to permit administration of test compounds or vehicle in an injection volume of 5 ml/kg i.v. Alternatively, test compounds may be administered orally or by subcutaneous or intraperitoneal routes. The wound is closed and a second skin incision is made in the midline of the scalp to expose the skull. […] The duration and/or intensity of hind foot tapping is then recorded continuously for 5 minutes. Alternatively, the ability of test compounds to inhibit foot tapping evoked by aversive stimulation, such as foot shock or single housing, may be studied using a similar method of quantification.

[4] = test system: cisplatin-induced emesis in ferrets; test: Ferret emesis assay; type: in vivo; conditions: p.o.
Protocol: Ferret Emesis Assay Individually housed male ferrets (1.0-2.5 kg) are dosed orally by gavage with test compound. Ten minutes later they are fed with approximately 100 g of tinned cat food. At 60 minutes following oral dosing, cisplatin (10 mg(kg) is given i.v. via a jugular vein catheter inserted under a brief period of halothane anaesthesia. The catheter is then removed, the jugular vein ligated and the skin incision closed. The ferrets recover rapidly from the anaesthetic and are mobile within 10-20 minutes. The animals are observed continuously during recovery from the anaesthetic and for 4 hours following the cisplatin injection, after which time the animals are killed humanely. The numbers of retches and vomits occurring during the 4 hours after cisplatin administration are recorded by trained observers.

C[C@@H](O[C@H]1OCCN(Cc2n[nH]c(=O)[nH]2)[C@H]1c1ccc(F)cc1)c1cc(C(F)(F)F)cc(C(F)(F)F)c1 [2-(R)-(1-(R)-(3,5-bis(trifluoromethyl)-phenyl)-ethoxy)-3-(S)-(4-fluorophenyl)-4-(3-(5-oxo-1H,4H-1,2,4-triazolo)methyl)-morpholine]
guinea-pig vocalisation (4 hr. pre-treatment): ID50 [1]: ID50 = 0.73 mg/kg p.o.
effect in decreasing depression and other negative mood states [2]: positive effect with respect to placebo
gerbil foot-tapping (5 mins.): IC50 ([3]; 5 mins.): IC50 = 0.36 mg/kg i.v.
gerbil foot-tapping (24 hrs.): IC50 ([3]; 24 hrs.): IC50 = 0.33 mg/kg i.v.
ferret emesis: ID90 [4]: ID90 = <3 mg/kg p.o.
